Tests used:
[1] = biological target: T1, hFASN enzyme (full length) (Homo sapiens, UniProt P49327); experiment: Fatty Acid Synthase (FASN) inhibition scintillation proximity assay; type: biochemical; details: for inhibition at 10 µM: read-out: Human FASN % inhibition @ 10 μM, 10 μM test compound; for IC50: read-out: Human FASN pIC50 (converted)
T1 construct: 10 μL hFASN enzyme (full length, 300 ng, purified in house); made in house
In short: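 Full-length in-house purified enzyme (300 ng) was tested in 100 mM KH2PO4 pH 7.5, 1 mM DTT with ³H-acetyl-CoA and malonyl-CoA as substrates; compounds ranged 0.01–30 μM. Reactions were stopped with streptavidin imaging beads, read by LEADseeker at 610 nm, and fitted to a 4-parameter logistic curve.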

[2] = system: A2780 ovarian cells; experiment: A2780 ovarian cell proliferation assay in lipid reduced medium, with palmitate (MTT); type: cell-based; details: Homo sapiens, A2780, 96 h; read-out: pIC50 A2780 Ovarian Cell, With Palmitate (converted)
In short: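 Seeded cells were switched next day to lipid-reduced serum, exposed to compound and 25 μM palmitate complexed with fatty-acid-free BSA, and incubated 96 h. Proliferation was then determined by MTT absorbance at 544 nm, with a best-fit curve of signal against concentration.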

[3] = system: A2780 ovarian cells; experiment: A2780 ovarian cell proliferation assay in lipid reduced medium, without palmitate (MTT); type: cell-based; details: Homo sapiens, A2780, 96 h; read-out: pIC50 A2780 Ovarian Cell, Without Palmitate (converted)
[4] = system: LNCaP-Vancouver prostate cells; experiment: In vitro LNCaP Vancouver prostate cell proliferation assay in lipid reduced medium; type: cell-based; details: read-out: pIC50 LNCaP_Vancouver prostate cell (converted)
[5] = system: PC-3M-Luc-C6 prostate cells; experiment: In vitro PC-3M-Luc-C6 prostate cell proliferation assay in lipid reduced medium; type: cell-based; details: 96 h, read-out: pIC50 PC-3M-Luc-C6 prostate cell (converted)
[6] = biological target: Fatty Acid Synthase Keto-reductase Domain (FASN KR) (Homo sapiens, UniProt P49327); experiment: Fatty Acid Synthase keto-reductase domain (FASN KR) inhibition, NADPH oxidation at 340 nm
Chain of Fatty Acid Synthase Keto-reductase Domain (FASN KR) (P49327 whole entry, the tested form may be a part): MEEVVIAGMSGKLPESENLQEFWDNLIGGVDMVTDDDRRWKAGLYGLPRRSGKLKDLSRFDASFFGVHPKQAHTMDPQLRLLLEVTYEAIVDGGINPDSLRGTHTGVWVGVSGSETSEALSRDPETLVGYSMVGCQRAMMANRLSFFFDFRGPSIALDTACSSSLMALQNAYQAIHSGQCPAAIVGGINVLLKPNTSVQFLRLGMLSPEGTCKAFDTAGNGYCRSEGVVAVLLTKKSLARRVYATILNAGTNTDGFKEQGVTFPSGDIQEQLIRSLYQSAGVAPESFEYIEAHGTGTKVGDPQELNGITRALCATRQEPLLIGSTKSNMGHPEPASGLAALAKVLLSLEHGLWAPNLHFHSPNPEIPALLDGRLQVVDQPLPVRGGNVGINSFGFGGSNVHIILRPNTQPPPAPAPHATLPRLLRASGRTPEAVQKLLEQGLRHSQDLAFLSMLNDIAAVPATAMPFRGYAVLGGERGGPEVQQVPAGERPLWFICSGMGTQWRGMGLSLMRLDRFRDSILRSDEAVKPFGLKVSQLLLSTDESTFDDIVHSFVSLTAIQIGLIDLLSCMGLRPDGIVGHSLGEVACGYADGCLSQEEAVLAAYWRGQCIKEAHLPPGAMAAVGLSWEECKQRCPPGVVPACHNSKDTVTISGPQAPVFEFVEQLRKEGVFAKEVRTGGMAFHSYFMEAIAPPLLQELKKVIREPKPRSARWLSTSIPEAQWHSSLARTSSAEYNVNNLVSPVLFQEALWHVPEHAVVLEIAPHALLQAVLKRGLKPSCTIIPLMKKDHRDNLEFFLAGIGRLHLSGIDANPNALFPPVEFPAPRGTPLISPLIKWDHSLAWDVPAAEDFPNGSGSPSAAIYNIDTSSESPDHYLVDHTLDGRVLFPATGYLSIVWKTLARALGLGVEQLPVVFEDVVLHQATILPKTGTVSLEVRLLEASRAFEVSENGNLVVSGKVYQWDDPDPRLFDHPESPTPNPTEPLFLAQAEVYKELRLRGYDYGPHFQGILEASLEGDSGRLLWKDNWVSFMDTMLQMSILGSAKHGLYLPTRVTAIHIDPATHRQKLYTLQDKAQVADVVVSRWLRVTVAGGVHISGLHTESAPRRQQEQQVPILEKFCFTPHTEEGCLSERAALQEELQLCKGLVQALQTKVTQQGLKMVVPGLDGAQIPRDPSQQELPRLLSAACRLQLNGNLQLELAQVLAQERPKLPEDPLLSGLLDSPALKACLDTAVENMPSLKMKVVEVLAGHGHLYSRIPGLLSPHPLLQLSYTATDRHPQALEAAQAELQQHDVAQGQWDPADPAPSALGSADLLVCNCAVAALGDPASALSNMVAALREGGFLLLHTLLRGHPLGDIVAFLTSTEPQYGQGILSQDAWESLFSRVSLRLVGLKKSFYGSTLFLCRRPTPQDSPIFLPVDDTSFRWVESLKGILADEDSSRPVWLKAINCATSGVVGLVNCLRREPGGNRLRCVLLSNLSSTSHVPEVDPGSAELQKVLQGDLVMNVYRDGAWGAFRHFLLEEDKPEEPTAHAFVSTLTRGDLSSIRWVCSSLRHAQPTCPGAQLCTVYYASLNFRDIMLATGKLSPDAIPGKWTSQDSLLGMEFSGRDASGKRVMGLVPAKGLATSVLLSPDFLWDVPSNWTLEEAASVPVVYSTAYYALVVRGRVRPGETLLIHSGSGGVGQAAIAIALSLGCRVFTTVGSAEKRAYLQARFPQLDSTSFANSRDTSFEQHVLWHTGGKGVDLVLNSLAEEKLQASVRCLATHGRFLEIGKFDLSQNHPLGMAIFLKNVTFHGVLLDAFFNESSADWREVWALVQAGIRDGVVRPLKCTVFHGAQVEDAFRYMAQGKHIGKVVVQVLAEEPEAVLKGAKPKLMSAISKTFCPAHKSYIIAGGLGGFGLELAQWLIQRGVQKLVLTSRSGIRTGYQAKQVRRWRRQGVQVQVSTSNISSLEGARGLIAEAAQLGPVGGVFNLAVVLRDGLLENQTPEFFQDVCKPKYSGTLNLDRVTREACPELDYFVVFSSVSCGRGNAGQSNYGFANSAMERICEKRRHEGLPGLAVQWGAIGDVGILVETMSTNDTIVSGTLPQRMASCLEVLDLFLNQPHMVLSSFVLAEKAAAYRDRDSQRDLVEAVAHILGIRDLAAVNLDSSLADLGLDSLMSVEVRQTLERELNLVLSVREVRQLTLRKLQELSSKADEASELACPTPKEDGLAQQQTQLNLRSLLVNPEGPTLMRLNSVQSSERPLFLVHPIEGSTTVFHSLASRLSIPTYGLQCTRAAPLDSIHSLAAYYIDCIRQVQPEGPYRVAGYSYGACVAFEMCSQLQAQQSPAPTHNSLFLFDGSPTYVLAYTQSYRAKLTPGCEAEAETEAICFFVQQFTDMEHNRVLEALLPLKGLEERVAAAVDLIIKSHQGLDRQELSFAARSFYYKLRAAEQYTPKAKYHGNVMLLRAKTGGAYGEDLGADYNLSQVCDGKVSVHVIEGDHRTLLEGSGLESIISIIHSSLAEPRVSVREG
Procedure: After 20 minutes incubation at room temperature the plate was measured again (T2).
The decrease in absorbance was calculated as (Absorbance before incubation T1)−(Absorbance following incubation T2).
A plot of Controlmin versus test compound concentration was fitted to a 4-parameter logistic curve using a non-linear least squares regression method.

T1 sequence (P49327 whole entry): as the sequence (P49327 whole entry, the tested form may be a part) above

Row | inhibition at 10 µM [1] [%] | IC50 [1] [nM] | IC50 [2] [nM] | IC50 [3] [nM] | IC50 [4] [nM] | IC50 [5] [nM] | IC50 [6] [nM] | Human FASN pIC50 ([1]; hFASN enzyme full length, scintillation proximity assay, "~" = standard error of pIC50 larger than 0.5) | FASN Keto-reductase Domain pIC50 ([6]; NADPH oxidation, absorbance at 340 nm, ethyl acetoacetate substrate) | Compound
1 | 101 | 37.2 | > 10000 | ~10.5 | 100 | 19.1 | 75.9 |  |  | Cc1cc(-c2ccc3c(cnn3C)c2)ccc1C1=NC2(CC2)C(=O)N1CC1CN(C(=O)C2CCCO2)C1 (stereo in doubt) [compound 206, (S)-5-(2-methyl-4-(1-methyl-1H-indazol-5-yl)phenyl)-6-((1-(tetrahydro-furan-2-carbonyl)azetidin-3-yl)methyl)-4,6-diazaspiro[2.4]hept-4-en-7-one]
2 | 101 | 60.3 | > 10000 | 331 | 912 | 219 | 155 |  |  | O=C(C1CC1)N1CC(CN2C(=O)C3(CC3)N=C2c2ccc(-c3ccc4occc4c3)cc2)C1 [compound 49, 5-[4-(1-Benzofuran-5-yl)phenyl]-6-{[1-(cyclopropylcarbonyl)azetidin-3-yl]methyl}-4,6-diazaspiro[2.4]hept-4-en-7-one]
3 | 98.7 | 41.7 | > 10000 | 95.5 | 263 | 100 | 132 |  |  | Cn1cc(-c2ccc(-c3ccc(C4=NC5(CC5)C(=O)N4CC4CN(C(=O)C5CC5)C4)cc3)cc2)cn1 [compound 59, 6-{[1-(Cyclopropylcarbonyl)azetidin-3-yl]methyl}-5-[4′-(1-methyl-1H-pyrazol-4-yl)biphenyl-4-yl]-4,6-diazaspiro[2.4]hept-4-en-7-one]
4 | 101 |  | > 10000 | ~13.2 | 66.1 | ~24.5 |  | 7.55 | 7.27 | Cn1cc(-c2ccc(-c3ccc(C4=NC5(CC5)C(=O)N4C[C@@H]4CCN(C(=O)C5CC5)C4)cc3)cc2)cn1 [compound 65, (R)-6-((1-(Cyclopropanecarbonyl)pyrrolidin-3-yl)methyl)-5-(4′-(methyl-1H-pyrazol-4-yl)-[1,1′-biphenyl]-4-yl)-4,6-diazaspiro[2.4]hept-4-en-7-one]
5 | 102 | 34.7 | > 10000 | ~3.89 | ~33.9 | 6.46 | 34.7 |  |  | Cn1ncc2cc(-c3ccc(C4=NC5(CC5)C(=O)N4C[C@@H]4CCN(C(=O)C5(O)CC5)C4)cc3)ccc21 [compound 200]
6 | 100 | 43.7 | ~3470 | ~4.37 | 20.9 | ~6.61 | 33.9 |  |  | Cn1ncc2cc(-c3ccc(C4=NC5(CC5)C(=O)N4C[C@@H]4CCN(C(=O)C5(C)CC5)C4)cc3)ccc21 [compound 201, (R)-5-(4-(1-methyl-1H-indazol-5-yl)phenyl)-6-((1-(1-methylcyclopropanecarbonyl)pyrrolidin-3-yl)methyl)-4,6-diazaspiro[2.4]hept-4-en-7-one]
7 | 101 | 83.2 | > 10000 | 58.9 | 550 | ~95.5 | 74.1 |  |  | O=C(N1CC[C@@H](CN2C(=O)C3(CC3)N=C2c2ccc(-c3ccc(Cl)cc3F)cc2)C1)C1(O)CC1 [compound 202, (R)-5-(4′-chloro-2′-fluoro[1,1′-biphenyl]-4-yl)-6-((1-(1-hydroxycyclopropanecarbonyl)pyrrolidin-3-yl)methyl)-4,6-diazaspiro[2.4]hept-4-en-7-one]
8 | 99 | 57.5 | > 10000 | ~4.57 | 21.4 | 5.62 | 46.8 |  |  | COc1ccc2cc(-c3ccc(C4=NC5(CC5)C(=O)N4C[C@@H]4CCN(C(=O)C5(O)CC5)C4)cc3)ccc2c1 [compound 203, (R)-6-((1-(1-hydroxycyclopropanecarbonyl)pyrrolidin-3-yl)methyl)-5-(4-(6-methoxynaphthalen-2-yl)phenyl)-4,6-diazaspiro[2.4]hept-4-en-7-one]
9 | 94 | 97.7 | > 10000 | 36.3 | 102 | 53.7 | 115 |  |  | Cc1cc(-c2ccc3c(cnn3C)c2)ccc1C1=NC2(CC2)C(=O)N1CC1CN(C(=O)C2CCCO2)C1 (centres unmarked) [compound 205, 5-(2-methyl-4-(1-methyl-1H-indazol-5-yl)phenyl)-6-((1-(tetrahytdro-furan-2-carbonyl)azetidin-3-yl)methyl)-4,6-diazaspiro[2.4]hept-4-en-7-one]
10 | 99 | 64.6 | 6030 | ~72.4 | 117 | 43.7 | 105 |  |  | Cc1cc(-c2ccc3c(cnn3C)c2)ccc1C1=NC2(CC2)C(=O)N1CC1CN(C(=O)C2(C)CCC2)C1 [compound 208, 5-(2-methyl-4-(1-methyl-1H-indazol-5-yl)phenyl)-6-((1-(1-methylcyclobutanecarbonyl)azetidin-3-yl)methyl)-4,6-diazaspiro[2.4]hept-4-en-7-one]
11 | 108 | 89.1 | > 10000 | 1860 | 4170 | ~776 | 257 |  |  | O=C(C1CC1)N1CC[C@@H](CN2C(=O)C3(CC3)N=C2c2ccc(-c3ccc(F)c(Cl)c3)cc2)C1 [compound 209, (R)-5-(3-chloro-4-fluoro-[1,1-biphenyl]-4-yl)-6-((1-(cyclopropanecarbonyl)pyrrolidin-3-yl)methyl)-4,6-diazaspiro[2.4]hept-4-en-7-one]
12 | 101 | 28.2 | > 10000 | 7.24 | 110 | 18.2 | 37.2 |  |  | N#CCc1c[nH]c2ccc(-c3ccc(C4=NC5(CC5)C(=O)N4C[C@@H]4CCN(C(=O)C5CC5)C4)cc3)cc12 [compound 212, (R)-2-(5-(4-(6-((1-(cyclopropanecarbonyl)pyrrolidin-3-yl)methyl)-7-oxo-4,6-diazaspiro[2.4]hept-4-en-5-yl)phenyl)-1H-indole-3-yl)acetonitrile]
13 | 95 | 46.8 | > 10000 | 115 | 355 | ~112 | 75.9 |  |  | Cc1[nH]c2ccc(-c3ccc(C4=NC5(CC5)C(=O)N4C[C@@H]4CCN(C(=O)C5CC5)C4)cc3)cc2c1C [compound 213, (R)-6-((1-(cyclopropanecarbonyl)pyrrolidin-3-yl)methyl)-5-(4-(2,3-dimethyl-1H-indol-5-yl)phenyl)-4,6-diazaspiro[2.4]hept-4-en-7-one]
14 | 99 | 22.4 | > 10000 | ~64.6 | 363 | 66.1 | 81.3 |  |  | Cc1cc2cc(-c3ccc(C4=NC5(CC5)C(=O)N4C[C@@H]4CCN(C(=O)C5CC5)C4)cc3)ccc2[nH]1 [compound 214, (R)-6-((1-(cyclopropanecarbonyl)pyrrolidin-3-yl)methyl)-5-(4-(2-methyl-1H-indol-5-yl)phenyl)-4,6-diazaspiro[2.4]hept-4-en-7-one]
